Results taken from US20090004474A1, “Lyocell fibers with anti-microbial activity” (Weyerhaeuser Co., priority 2007, published 2009).

Tests used:
E coli = experiment: Growth medium study, antimicrobial test of meltblown fibers against E. coli; format: cell-based; details: compared to a control at the same time; for reduction of E. coli colony forming units at twenty four hours compared to a control: 24 hours
Method: E. coli: Prep Culti-Loop in 1.0 ml sterile TSB for 10 min.
ATCC 8739 Streak to TSA slant and grow for 24 hours @ 35 C
For S. aureus and E. coli, make 1:100 dilution of stock culture solution, and add 1.0 ml of the diluted solution to 1.0 liter of MGM.
S. aureus: 94.4 ml stock PBS+849.6 DI water; adjust pH & sterilize. (or 994 ml pre-diluted PBS Stock solution). (2X+2)200=2000 ml for 4. • ADD: 1.0 ml MSM • 50 ml BME vitamins. • 5 ml 1% Peptone. • 1.0 ml diluted Bacterial Culture (pre-made) • b. E. coli: 94.9 ml stock PBS+854.1 ml DI water; adjust pH & sterilize. (or 949 ml pre-diluted PBS Stock solution). (2X+2)200=2000 ml for 4. • ADD: 1.0 ml MSM • 50 ml BME vitamins. • 1.0 ml diluted Bacterial Culture (pre-made) • c. C. albicans: 92.9 ml stock PBS+836.1 ml DI water; adjust pH & sterilize. (or 929 ml pre-diluted PBS Stock solution). (2X+2)200=2000 ml for 4. • ADD: 1.0 ml MSM • 50 ml BME vitamins. • 20 ml 10% Peptone. • 10 ml 10% (NH4)2SO4 • 1.0 ml of Undiluted Bacterial Culture (pre-made) 7. Product to test:
Prep enough sterile 250 Plastic Bottles to handle 2 repetitions of each organism plus pos. and neg. control. (45 flasks are needed to test 6 products.) • B. Label all Plastic Bottles with organism (Staph, E. coli, C alb.), plus Sequential Number (W-1,W-2 . . . , W-45). • c. Add 2.0 gm of each product to be tested to each Plastic Bottle (or a sterile blender if Sample is not soft), then add 200 ml of inoculated MGM. Incubate, with shaking (in wire milk case—attached to shaker waterbath—plus one or two plastic cases) for 4 and 24 hours at 37 C Run duplicate tests. […] Run two bottles for each organism containing 200 ml of inoculated MGM, without Weyerhaeuser Sample. These are Blanks. • f. Run positive controls, TSB in place of Sample (see below) for each organism type. […] Incubation and counting. • a. […]

C. Albicans = experiment: Growth medium study, antimicrobial test of meltblown fibers against C. albicans; format: cell-based; details: compared to a control at the same time
Method: Growth Medium Study Procedure
C. albicans: Prep Culti-Loop in 1.0 ml of sterile dilute PBS
ATCC 10231 Solution for 10 min. Streak onto SDA and grow for 24 hours @ 35 C
a. Prepare 9.0 ml dilute PBS tubes. Remove (wash) each culture organism from slants and add to PBS tubes.
Adjust so the turbidity of the culture matches a 0.5 McFarland solution (In BAM Media Pages). This is the stock culture solution. (S. aureus & E. coli, C. albicans.)
c. For C. albicans add 1.0 ml stock culture solution to 1.0 liter of MGM. (about […] final population)
6. Specialized MGM solutions for each Organism: • a. S. aureus: 94.4 ml stock PBS+849.6 DI water; adjust pH & sterilize. (or […] pre-diluted PBS Stock solution). (2X+2)200=2000 ml for 4. • ADD: 1.0 ml MSM • 50 ml BME vitamins. • 5 ml 1% Peptone. • 1.0 ml diluted Bacterial Culture (pre-made) • b. E. coli: 94.9 ml stock PBS+854.1 ml DI water; adjust pH & sterilize. (or 949 ml pre-diluted PBS Stock solution). (2X+2)200=2000 ml for 4. • ADD: 1.0 ml MSM • 50 ml BME vitamins. • 1.0 ml diluted Bacterial Culture (pre-made) • c. C. albicans: 92.9 ml stock PBS+836.1 ml DI water; adjust pH & sterilize. (or 929 ml pre-diluted PBS Stock solution). (2X+2)200=2000 ml for 4. • ADD: 1.0 ml MSM • 50 ml BME vitamins. • 20 ml 10% Peptone. • 10 ml 10% (NH4)2SO4 • 1.0 ml of Undiluted Bacterial Culture (pre-made) 7. Product to test:
a. […]

Compound	reduction of E. coli colony forming units at twenty four hours compared to a control (E coli)	reduction of C. albicans count at four hours compared to a control (C. Albicans; 4 hours)	reduction of C. albicans count at twenty four hours compared to a control (C. Albicans; 24 hours)	reduction of E. coli colony forming units at four hours compared to a control (E coli; 4 hours)
[O]=[Zn] [Zinc oxide]	at least ninety five	at least ninety five	at least ninety five	
O=C([O-])[O-].[Ca+2] [calcium carbonate, Calcium carbonate]	more than ninety five			more than ninety five
